The structures appear in SMILES notation. Activity calls are given as the source filed them. Cut-off read from the data, not from the text of the source, for most assays here: actives have a measured Kd and inactives only a lower limit.

Experiment [1] concerns the target MAP kinase-activated protein kinase 2 (Homo sapiens, UniProt P49137).
Experiment [2] addresses Protein-tyrosine kinase 6 (Homo sapiens, UniProt Q13882).
Experiment [3] deals with T1, Probable ATP-dependent RNA helicase DDX6 (Homo sapiens, UniProt P26196).
T1 sequence (P26196 whole entry): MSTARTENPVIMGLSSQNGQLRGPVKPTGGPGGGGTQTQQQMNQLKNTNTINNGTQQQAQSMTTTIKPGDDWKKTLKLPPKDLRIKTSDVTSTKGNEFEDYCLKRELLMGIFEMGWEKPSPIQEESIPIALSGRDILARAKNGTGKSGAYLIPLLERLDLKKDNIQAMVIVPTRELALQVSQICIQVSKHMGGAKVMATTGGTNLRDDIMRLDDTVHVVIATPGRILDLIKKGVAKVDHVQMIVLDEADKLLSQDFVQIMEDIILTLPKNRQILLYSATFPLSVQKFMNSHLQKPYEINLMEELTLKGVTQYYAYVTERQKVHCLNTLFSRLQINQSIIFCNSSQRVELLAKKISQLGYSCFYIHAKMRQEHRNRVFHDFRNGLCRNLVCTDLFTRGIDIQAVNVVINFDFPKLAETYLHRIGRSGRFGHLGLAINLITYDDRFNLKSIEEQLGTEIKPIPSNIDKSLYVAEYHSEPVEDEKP

Experiment [4] deals with T2, Serine/threonine-protein kinase TAO1 (Homo sapiens, UniProt Q7L7X3).
T2 sequence (Q7L7X3 whole entry): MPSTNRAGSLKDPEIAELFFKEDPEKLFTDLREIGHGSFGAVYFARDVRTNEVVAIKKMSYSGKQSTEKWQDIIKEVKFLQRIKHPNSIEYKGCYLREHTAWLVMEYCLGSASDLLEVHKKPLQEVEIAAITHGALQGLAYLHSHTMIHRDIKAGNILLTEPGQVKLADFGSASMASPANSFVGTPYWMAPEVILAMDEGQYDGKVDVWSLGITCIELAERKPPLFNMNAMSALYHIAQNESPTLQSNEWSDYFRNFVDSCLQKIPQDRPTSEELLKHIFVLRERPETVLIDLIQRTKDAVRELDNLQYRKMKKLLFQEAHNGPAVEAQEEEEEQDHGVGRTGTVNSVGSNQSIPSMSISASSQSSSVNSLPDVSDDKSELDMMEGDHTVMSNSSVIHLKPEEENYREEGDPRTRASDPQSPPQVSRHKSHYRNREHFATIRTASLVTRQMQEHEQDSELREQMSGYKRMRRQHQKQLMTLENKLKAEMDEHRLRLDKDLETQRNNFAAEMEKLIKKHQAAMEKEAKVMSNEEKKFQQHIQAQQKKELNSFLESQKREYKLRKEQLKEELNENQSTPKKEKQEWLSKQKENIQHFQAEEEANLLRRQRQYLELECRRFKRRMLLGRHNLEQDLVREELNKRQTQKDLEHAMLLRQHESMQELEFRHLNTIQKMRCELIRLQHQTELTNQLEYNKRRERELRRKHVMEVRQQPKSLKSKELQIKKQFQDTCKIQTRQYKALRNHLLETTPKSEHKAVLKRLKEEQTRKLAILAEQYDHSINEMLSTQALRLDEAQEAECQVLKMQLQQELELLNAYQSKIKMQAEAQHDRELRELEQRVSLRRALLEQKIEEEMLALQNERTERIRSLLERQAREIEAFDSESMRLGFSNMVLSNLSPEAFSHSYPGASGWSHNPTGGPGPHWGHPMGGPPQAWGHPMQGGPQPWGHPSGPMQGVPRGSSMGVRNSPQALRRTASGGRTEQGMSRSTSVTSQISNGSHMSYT

The target of experiment [5] is Interleukin-1 receptor-associated kinase 1 (Homo sapiens, UniProt P51617).
The target in experiment [6] is Chromodomain-helicase-DNA-binding protein 4 (Homo sapiens, UniProt Q14839).
Experiment [7] has as its target T3, Receptor-type tyrosine-protein kinase FLT3 (Homo sapiens, UniProt P36888).
T3 sequence (P36888 whole entry): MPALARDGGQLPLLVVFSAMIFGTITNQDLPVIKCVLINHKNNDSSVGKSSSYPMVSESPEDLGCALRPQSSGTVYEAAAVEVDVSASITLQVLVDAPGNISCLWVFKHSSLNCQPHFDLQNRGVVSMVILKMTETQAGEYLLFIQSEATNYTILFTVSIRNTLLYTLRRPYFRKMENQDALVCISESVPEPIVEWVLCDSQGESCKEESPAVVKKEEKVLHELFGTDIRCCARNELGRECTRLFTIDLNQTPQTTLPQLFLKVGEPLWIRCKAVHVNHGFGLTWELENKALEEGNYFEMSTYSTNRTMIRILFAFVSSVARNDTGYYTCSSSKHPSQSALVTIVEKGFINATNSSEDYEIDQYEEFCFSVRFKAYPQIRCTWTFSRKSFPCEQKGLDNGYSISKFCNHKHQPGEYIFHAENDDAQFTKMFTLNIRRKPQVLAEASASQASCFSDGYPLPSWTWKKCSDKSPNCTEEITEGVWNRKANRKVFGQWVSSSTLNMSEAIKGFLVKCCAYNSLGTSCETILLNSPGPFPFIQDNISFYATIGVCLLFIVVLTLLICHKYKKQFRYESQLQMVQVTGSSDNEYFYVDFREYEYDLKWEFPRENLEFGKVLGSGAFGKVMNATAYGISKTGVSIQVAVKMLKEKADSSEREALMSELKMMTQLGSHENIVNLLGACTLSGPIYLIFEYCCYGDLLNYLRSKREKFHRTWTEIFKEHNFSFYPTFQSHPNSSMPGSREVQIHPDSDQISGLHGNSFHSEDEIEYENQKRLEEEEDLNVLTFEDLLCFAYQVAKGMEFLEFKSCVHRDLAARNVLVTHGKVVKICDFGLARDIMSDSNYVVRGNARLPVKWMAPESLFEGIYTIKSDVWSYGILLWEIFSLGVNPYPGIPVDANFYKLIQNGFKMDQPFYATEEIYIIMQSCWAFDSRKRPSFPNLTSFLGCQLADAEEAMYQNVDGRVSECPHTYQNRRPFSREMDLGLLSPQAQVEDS

Experiment [8] addresses Elongation factor Tu, mitochondrial (Homo sapiens, UniProt P49411).
Note: in the data inactive means no Kd found up to 30 µM.

Chain of Interleukin-1 receptor-associated kinase 1 (P51617 whole entry): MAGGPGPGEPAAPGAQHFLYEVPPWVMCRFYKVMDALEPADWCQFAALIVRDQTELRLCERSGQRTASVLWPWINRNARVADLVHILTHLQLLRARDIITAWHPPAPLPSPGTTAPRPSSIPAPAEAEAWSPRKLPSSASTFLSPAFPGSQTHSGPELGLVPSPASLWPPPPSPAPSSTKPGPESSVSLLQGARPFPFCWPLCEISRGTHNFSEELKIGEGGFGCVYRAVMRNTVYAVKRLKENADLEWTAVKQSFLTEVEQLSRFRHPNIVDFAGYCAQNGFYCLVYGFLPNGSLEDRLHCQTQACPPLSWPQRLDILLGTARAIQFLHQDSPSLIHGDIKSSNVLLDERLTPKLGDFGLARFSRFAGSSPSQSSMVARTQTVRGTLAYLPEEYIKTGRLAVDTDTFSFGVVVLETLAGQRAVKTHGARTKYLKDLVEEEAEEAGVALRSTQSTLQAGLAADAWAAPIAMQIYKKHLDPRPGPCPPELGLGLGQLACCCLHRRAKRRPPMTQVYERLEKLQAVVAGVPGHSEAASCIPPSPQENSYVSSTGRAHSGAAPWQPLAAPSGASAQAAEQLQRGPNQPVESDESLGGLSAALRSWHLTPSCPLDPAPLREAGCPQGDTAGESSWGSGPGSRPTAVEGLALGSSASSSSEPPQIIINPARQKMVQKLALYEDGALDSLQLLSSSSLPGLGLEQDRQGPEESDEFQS
Chain of Chromodomain-helicase-DNA-binding protein 4 (Q14839 whole entry): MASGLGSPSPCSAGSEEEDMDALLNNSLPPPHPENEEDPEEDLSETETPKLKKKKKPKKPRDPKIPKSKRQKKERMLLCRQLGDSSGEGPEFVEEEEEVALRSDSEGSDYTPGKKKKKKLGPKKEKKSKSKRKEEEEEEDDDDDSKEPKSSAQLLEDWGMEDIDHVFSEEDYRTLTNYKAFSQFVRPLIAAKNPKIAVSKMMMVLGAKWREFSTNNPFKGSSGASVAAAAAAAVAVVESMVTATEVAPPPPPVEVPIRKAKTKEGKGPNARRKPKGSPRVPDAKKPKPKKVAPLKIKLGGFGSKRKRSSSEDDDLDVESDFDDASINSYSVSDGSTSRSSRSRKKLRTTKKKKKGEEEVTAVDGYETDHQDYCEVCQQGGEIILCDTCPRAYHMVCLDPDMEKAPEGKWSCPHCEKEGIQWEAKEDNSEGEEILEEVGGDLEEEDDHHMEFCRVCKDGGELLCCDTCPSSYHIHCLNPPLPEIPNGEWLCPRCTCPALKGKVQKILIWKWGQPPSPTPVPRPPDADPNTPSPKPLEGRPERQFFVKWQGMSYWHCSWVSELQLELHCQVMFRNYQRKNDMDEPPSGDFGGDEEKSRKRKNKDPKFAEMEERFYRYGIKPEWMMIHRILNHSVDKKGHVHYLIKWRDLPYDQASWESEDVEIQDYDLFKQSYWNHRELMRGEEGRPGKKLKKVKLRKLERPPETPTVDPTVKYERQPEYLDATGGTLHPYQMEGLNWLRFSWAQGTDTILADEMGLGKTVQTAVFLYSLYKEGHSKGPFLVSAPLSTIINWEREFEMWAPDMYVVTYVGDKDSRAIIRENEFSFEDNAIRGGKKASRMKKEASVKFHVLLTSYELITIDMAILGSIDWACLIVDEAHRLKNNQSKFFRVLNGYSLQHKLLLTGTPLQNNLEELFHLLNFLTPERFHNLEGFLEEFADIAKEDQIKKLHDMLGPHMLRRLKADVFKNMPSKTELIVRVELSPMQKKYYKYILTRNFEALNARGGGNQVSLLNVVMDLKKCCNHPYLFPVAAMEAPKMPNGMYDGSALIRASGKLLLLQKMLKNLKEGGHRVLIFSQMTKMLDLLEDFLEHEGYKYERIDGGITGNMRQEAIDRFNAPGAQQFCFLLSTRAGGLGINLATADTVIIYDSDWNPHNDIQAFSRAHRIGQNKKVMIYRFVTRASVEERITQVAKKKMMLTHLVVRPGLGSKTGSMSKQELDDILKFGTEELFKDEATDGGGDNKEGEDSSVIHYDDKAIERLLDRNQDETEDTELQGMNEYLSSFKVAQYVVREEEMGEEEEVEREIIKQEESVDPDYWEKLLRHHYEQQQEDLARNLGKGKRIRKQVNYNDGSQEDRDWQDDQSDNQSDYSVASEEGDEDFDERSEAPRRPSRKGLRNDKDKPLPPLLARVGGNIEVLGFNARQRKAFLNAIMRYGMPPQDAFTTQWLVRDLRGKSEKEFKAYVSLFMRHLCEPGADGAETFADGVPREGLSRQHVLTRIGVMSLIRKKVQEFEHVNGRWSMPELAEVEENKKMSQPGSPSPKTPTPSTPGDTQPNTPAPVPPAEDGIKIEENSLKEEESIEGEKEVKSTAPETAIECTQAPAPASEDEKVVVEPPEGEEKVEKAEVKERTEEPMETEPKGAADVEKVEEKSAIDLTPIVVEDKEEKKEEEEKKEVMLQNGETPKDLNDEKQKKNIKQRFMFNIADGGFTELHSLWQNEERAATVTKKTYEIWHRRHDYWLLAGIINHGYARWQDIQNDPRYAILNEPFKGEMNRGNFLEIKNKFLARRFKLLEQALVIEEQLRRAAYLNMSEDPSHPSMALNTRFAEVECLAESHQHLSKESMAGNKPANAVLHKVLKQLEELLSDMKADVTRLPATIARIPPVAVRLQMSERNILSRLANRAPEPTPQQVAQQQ
Chain of Protein-tyrosine kinase 6 (Q13882 whole entry): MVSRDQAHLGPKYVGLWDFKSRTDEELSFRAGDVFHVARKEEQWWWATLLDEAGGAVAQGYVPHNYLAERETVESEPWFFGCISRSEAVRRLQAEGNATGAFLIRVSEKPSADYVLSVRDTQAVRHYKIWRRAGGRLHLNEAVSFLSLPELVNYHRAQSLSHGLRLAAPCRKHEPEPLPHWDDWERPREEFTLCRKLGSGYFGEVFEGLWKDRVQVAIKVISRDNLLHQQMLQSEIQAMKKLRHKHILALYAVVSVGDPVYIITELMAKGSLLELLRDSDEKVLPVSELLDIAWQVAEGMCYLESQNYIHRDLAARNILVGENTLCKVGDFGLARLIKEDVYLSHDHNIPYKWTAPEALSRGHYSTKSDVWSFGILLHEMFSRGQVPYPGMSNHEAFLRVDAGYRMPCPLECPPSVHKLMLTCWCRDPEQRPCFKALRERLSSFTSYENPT
Chain of MAP kinase-activated protein kinase 2 (P49137 whole entry): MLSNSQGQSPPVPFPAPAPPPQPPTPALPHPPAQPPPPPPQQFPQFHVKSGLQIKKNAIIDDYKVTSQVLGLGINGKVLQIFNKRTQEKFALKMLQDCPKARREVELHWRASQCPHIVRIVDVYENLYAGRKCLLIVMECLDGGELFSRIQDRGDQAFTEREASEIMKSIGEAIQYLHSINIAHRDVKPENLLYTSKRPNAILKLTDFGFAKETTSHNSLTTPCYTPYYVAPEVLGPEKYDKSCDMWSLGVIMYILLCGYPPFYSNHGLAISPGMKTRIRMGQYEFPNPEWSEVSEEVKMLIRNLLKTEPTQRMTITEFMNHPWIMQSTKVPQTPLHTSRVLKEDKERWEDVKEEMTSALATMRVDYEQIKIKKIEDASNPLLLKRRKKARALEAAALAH

For `Cc1cc2c(F)c(Oc3ncnn4cc(OC[C@@H](C)OC(=O)[C@H](C)N)c(C)c34)ccc2[nH]1` [BRIVANIB ALANINATE], the Kd in experiment [1], in experiment [2], in experiment [3], in experiment [4], in experiment [5] and in experiment [6] was > 30 µM (inactive) each time. Further, the Kd in experiment [7] and in experiment [8] was > 30 µM (inactive) in each case.

As for `C[C@@H]1CN(Cc2ccc(F)cc2)[C@@H](C)CN1C(=O)c1cc2c(C(=O)C(=O)N(C)C)cn(C)c2cc1Cl` [TALMAPIMOD], the Kd was 0.019 µM in experiment [1]; > 30 µM (inactive) in experiment [2]; > 30 µM (inactive) in experiment [3]; > 30 µM (inactive) in experiment [4]; > 30 µM (inactive) in experiment [5]; > 30 µM (inactive) in experiment [6]. The Kd in experiment [7] and in experiment [8] was > 30 µM (inactive) in each case.

With `CN1CCC(COc2cnc(-c3cccc(Cn4nc(-c5cccc(C#N)c5)ccc4=O)c3)nc2)CC1` [TEPOTINIB], the Kd in experiment [1], in experiment [2], in experiment [3], in experiment [4], in experiment [5] and in experiment [6] was > 30 µM (inactive) each time. Also, the Kd in experiment [7] and in experiment [8] was > 30 µM (inactive) each time.

Consider `N[C@@H]1CCCN(c2c(/C=C3\SC(=O)NC3=O)cccc2-c2ccccc2)C1`, for which the Kd in experiment [1], in experiment [2], in experiment [3], in experiment [4], in experiment [5] and in experiment [6] was > 30 µM (inactive) each time. The Kd in experiment [7] and in experiment [8] was > 30 µM (inactive) each time.

For `COc1cc(N2CCC(N3CCN(C)CC3)CC2)ccc1Nc1ncnc(Nc2ccccc2S(=O)(=O)C(C)C)n1` [ASP-3026], the Kd in experiment [1] is > 30 µM (inactive); in experiment [2], 0.061 µM (active); in experiment [3] it was > 30 µM (inactive); in experiment [4] it was > 30 µM (inactive); in experiment [5], > 30 µM (inactive); in experiment [6] it was > 30 µM (inactive). Further, the dissociation constant (Kd) in experiment [7] is 0.627 µM (active); in experiment [8], > 30 µM (inactive).

`Cc1cc([C@@H](C)Nc2ccccc2C(=O)O)c2nc(N3CCOCC3)cc(=O)n2c1` [AZD-6482]: the Kd was > 30 µM (inactive) in experiment [1]; > 30 µM (inactive) in experiment [2]; 4.1 µM in experiment [3]; > 30 µM (inactive) in experiment [4]; > 30 µM (inactive) in experiment [5]; > 30 µM (inactive) in experiment [6]. Besides, the Kd in experiment [7] and in experiment [8] was > 30 µM (inactive) each time.

As to `CN1CCC(CNc2ccc3ncc(-c4cccc(OC(F)(F)F)c4)n3n2)CC1` [SGI-1776], the Kd in experiment [1], in experiment [2], in experiment [3], in experiment [4], in experiment [5] and in experiment [6] was > 30 µM (inactive) in each case. The Kd in experiment [7] was 0.143 µM (active); in experiment [8], > 30 µM (inactive).

As to `CC(C)Nc1cc(-c2c[nH]c(C(=O)N[C@H](CO)c3cccc(Cl)c3)c2)c(Cl)cn1` [ULIXERTINIB], the Kd in experiment [1] was > 30 µM (inactive); in experiment [2] it was > 30 µM (inactive); in experiment [3], > 30 µM (inactive); in experiment [4], 0.388 µM (active); in experiment [5] it was > 30 µM (inactive); in experiment [6], > 30 µM (inactive). Also, the Kd in experiment [7] and in experiment [8] was > 30 µM (inactive) each time.

On to `O=c1sn(-c2cccc3ccccc23)c(=O)n1Cc1ccccc1` [TIDEGLUSIB], for which the Kd in experiment [1], in experiment [2], in experiment [3], in experiment [4], in experiment [5] and in experiment [6] was > 30 µM (inactive) each time. In addition, the Kd in experiment [7] and in experiment [8] was > 30 µM (inactive) each time.

As for `Cc1ccc(-n2nc(C(C)(C)C)cc2NC(=O)NCc2cc(F)ccc2Oc2ccc3c(cnn3CCO)c2)cc1` [PEXMETINIB], the dissociation constant Kd in experiment [1] is 0.067 µM (active); in experiment [2], > 30 µM (inactive); in experiment [3], > 30 µM (inactive); in experiment [4] it was > 30 µM (inactive); in experiment [5] it was 4.37 µM (active); in experiment [6], > 30 µM (inactive). The Kd in experiment [7] and in experiment [8] was > 30 µM (inactive) throughout.

As for `CCN1CCN(Cc2ccc(-c3cc4c(N[C@H](C)c5ccccc5)ncnc4[nH]3)cc2)CC1` [AEE-788], the Kd in experiment [1], in experiment [2], in experiment [3], in experiment [4], in experiment [5] and in experiment [6] was > 30 µM (inactive) throughout. Besides, the Kd in experiment [7] and in experiment [8] was > 30 µM (inactive) throughout.

Take `Cc1ccc(NC(=O)c2ccc(CN3CC[C@H](N(C)C)C3)c(C(F)(F)F)c2)cc1Nc1nccc(-c2cncnc2)n1` [BAFETINIB]: the Kd in experiment [1] was 0.304 µM (active); in experiment [2], > 30 µM (inactive); in experiment [3], > 30 µM (inactive); in experiment [4] it was > 30 µM (inactive); in experiment [5], 2.06 µM; in experiment [6], > 30 µM (inactive). Moreover, the Kd in experiment [7] and in experiment [8] was > 30 µM (inactive) each time.

For `CN(C)C(=O)c1cc2cnc(Nc3ccc(N4CCNCC4)cn3)nc2n1C1CCCC1` [RIBOCICLIB], the Kd in experiment [1], in experiment [2], in experiment [3], in experiment [4], in experiment [5] and in experiment [6] was > 30 µM (inactive) each time. The Kd in experiment [7] and in experiment [8] was > 30 µM (inactive) each time.

The values above are taken from ChEMBL document CHEMBL3991601, “The target landscape of clinical kinase drugs” (Science, 2017).
